According to ChEMBL document CHEMBL4364273, “Discovery of SHR1653, a Highly Potent and Selective OTR Antagonist with Improved Blood-Brain Barrier Penetration” (ACS Med Chem Lett, 2019):
Converted amounts (≈) assume the structure as drawn.

Tests used:
[1] = target: Voltage-gated inwardly rectifying potassium channel KCNH2 (Homo sapiens, UniProt Q12809); assay: Inhibition of human ERG
[2] = Clearance in Sprague-Dawley rat at 1 mg/kg, iv measured for 24 hrs by LC-MS/MS analysis; type: ADME, organism-based; details: in vivo
[3] = Tmax in Beagle dog at 20 mg/kg, po measured for 24 hrs by LC-MS/MS analysis; type: ADME, organism-based, Canis lupus familiaris; details: in vivo
[4] = target: Cytochrome P450 2C19 (Homo sapiens, UniProt P33261); assay: Inhibition of human recombinant CYP2C19; type: ADME
Sequence of Cytochrome P450 2C19 (P33261 whole entry): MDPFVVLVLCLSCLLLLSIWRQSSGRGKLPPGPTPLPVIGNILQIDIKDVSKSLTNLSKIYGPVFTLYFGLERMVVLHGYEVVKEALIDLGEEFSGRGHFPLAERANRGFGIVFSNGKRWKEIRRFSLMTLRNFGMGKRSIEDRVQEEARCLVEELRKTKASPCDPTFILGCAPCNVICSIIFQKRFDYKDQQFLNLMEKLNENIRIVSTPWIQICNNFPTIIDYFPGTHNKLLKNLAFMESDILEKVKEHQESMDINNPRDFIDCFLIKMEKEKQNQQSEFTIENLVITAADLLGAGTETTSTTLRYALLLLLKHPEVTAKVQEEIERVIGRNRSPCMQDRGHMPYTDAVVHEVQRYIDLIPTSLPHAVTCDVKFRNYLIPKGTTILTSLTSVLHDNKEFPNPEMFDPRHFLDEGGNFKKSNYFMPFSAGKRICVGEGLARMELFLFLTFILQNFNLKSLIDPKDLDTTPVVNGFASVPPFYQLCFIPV

[5] = Cmax in nude mouse at 4 mg/kg, po measured for 24 hrs by LC-MS/MS analysis; type: ADME, organism-based; parameters: dose 4 mg/kg, route oral; details: in vivo
[6] = Half-life in nude mouse at 4 mg/kg, po measured for 24 hrs by LC-MS/MS analysis; type: ADME, organism-based; details: in vivo
[7] = Cmax in Beagle dog at 20 mg/kg, po measured for 24 hrs by LC-MS/MS analysis; type: ADME, organism-based, Canis lupus familiaris; parameters: dose 20 mg/kg, route oral; details: in vivo
[8] = target: T1, Oxytocin receptor (Homo sapiens, UniProt P30559); assay: Antagonist activity at human OTR expressed in HEK293 cells assessed as decrease in calcium flux measured after 10 mins in […] by Fluo-4 dye based microplate reader based assay; type: functional, cell-based
T1 sequence (P30559 whole entry): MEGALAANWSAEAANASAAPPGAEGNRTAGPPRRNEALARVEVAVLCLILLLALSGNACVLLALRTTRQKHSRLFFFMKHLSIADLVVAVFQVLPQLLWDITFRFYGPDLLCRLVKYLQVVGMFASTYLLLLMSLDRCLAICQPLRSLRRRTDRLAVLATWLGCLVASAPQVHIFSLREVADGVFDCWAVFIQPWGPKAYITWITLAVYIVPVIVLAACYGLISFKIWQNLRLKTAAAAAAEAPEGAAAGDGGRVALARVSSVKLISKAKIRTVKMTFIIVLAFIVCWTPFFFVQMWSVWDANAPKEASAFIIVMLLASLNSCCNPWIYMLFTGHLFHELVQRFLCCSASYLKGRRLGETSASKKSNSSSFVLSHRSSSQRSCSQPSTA

[9] = target: Cytochrome P450 2D6 (Homo sapiens, UniProt P10635); assay: Inhibition of human recombinant CYP2D6; type: ADME
Sequence of Cytochrome P450 2D6 (P10635 whole entry): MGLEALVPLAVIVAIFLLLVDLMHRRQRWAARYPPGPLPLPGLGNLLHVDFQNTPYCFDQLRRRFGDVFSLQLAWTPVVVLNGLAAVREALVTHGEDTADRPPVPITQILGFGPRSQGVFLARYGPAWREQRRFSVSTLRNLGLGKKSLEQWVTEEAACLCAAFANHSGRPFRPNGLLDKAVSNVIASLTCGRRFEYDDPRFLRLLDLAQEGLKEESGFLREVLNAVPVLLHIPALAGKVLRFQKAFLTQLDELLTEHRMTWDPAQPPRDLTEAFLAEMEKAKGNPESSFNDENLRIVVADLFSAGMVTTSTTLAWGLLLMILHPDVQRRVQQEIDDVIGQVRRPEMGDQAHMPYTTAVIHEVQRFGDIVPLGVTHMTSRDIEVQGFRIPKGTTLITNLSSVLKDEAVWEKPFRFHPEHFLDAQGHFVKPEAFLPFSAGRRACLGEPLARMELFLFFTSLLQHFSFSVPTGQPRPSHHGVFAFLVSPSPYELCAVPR

[10] = Solubility of compound in PBS at pH 7.4; type: physicochemical
[11] = Half-life in Beagle dog at 20 mg/kg, po measured for 24 hrs by LC-MS/MS analysis; type: ADME, organism-based, Canis lupus familiaris; details: in vivo
[12] = Lipophilicity, log D of compound at pH 7.4; type: physicochemical; details: buffer
[13] = Tmax in Sprague-Dawley rat at 150 mg/kg, po measured for 24 hrs by LC-MS/MS analysis; type: ADME, organism-based; details: in vivo
[14] = Protein binding in human plasma; type: ADME, cell-free; details: read-out: PPB (converted)
[15] = Acute toxicity in rat; details: in vivo
[16] = Unbound fraction in Sprague-Dawley rat brain by LC-MS/MS analysis; type: ADME, tissue-based
[17] = Acute toxicity in rat assessed as effect on hematological parameters up to 300 mg/kg measured for 7 days; type: organism-based; details: in vivo, 168 h
[18] = AUC (0 to 24 hrs) in Sprague-Dawley rat at 2 mg/kg, po by LC-MS/MS analysis; type: ADME, organism-based; parameters: time < 24 hr, dose 2 mg/kg, route oral; details: in vivo
[19] = tested on: Rattus norvegicus; assay: Anti-premature ejaculation activity in anesthetized oxytocin-induced uterine contraction Sprague-Dawley rat model assessed as decrease in intraluminal uterine pressure administered orally for 20 mins and 1 hr later treated with oxytocin and measured for 15 to 30 mins relative to control; type: functional

Sequence of Voltage-gated inwardly rectifying potassium channel KCNH2 (Q12809 whole entry): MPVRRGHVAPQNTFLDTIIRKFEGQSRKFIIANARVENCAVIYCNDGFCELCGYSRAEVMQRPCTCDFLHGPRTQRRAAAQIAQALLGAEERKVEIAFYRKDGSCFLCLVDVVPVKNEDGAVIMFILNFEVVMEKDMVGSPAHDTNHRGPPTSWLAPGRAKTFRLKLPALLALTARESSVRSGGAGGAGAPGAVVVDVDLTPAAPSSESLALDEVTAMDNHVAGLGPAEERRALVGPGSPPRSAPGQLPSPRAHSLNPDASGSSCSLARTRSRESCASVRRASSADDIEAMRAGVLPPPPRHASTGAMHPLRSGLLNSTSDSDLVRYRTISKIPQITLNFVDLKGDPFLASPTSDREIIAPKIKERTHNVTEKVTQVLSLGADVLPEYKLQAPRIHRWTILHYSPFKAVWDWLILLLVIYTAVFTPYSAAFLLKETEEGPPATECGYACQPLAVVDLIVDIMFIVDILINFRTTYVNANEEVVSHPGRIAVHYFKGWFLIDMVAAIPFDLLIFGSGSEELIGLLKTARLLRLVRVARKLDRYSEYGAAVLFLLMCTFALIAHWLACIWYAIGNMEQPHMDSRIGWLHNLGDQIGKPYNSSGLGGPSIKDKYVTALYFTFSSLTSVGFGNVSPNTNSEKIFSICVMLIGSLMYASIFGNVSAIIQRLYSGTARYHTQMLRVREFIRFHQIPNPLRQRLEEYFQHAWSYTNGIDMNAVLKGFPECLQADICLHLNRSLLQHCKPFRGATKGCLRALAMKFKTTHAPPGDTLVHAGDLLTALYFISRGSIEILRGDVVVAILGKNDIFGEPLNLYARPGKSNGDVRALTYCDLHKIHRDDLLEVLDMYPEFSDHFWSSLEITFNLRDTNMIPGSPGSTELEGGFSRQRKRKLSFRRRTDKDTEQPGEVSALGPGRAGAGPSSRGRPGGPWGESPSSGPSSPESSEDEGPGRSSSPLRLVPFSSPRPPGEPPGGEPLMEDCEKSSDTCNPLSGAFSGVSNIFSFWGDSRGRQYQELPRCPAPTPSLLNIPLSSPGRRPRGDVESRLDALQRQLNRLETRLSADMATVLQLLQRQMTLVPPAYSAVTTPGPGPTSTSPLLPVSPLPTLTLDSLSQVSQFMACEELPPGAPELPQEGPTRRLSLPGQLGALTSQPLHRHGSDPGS

With `COCc1nnc(N2C[C@@H]3C[C@]3(c3ccc(F)cc3Cl)C2)n1-c1ccc(OC)nc1` the IC50 [1] was 16 µM, the clearance [2] was 16.1 mL/min/kg and the Tmax [3] was 0.88 h. For the same compound, the IC50 [4] was 11 µM, the Cmax [5] was 330 ng/mL and the half-life [6] was 1.9 h. For the same compound, the Cmax [7] was 13500 ng/mL, the IC50 [8] was 0.015 µM and the IC50 [9] was over 30 µM. It also gave a solubility [10] of 420 µM (≈ 180 µg/mL), a half-life [11] of 3.38 h and a logD [12] of 2.86. The Tmax [13] was 0.67 h, the fraction unbound [14] was 0.0352 and the MTD [15] was over 900 mg/kg. The NOAEL [15] was 300 mg/kg, the fraction unbound [16] was 0.0166 and the Activity [17] was “Non-Toxic”. For the same compound, the AUC(0-t) at 24 h [18] was 1680 ng·h/mL, the ED [19] was 30 mg/kg and the inhibition [19] was “Dose-dependent effect”.
